Test [1] addresses T1, FoxO1 (Mus musculus, UniProt Q9R1E0). Description: Transient FoxO1 inhibition in β-cell-ablated (and non-ablated control) adult Somatostatin-Cre; R26-YFP; RIP-DTR mice: δ-cell conversion into insulin+ cells.
Test [2] addresses T1, FoxO1. Further details: endogenous in cells; host or cells: Somatostatin-Cre; R26-YFP; RIP-DTR mice (pancreatic islets, δ-cells), in vivo. Conditions: oral administration, diabetic db/db mice; cited from earlier work.
Test [3] has as its system α-cells. Description: α-cell lineage tracing after β-cell ablation in Glucagon-rtTA; TetO-Cre; R26-YFP; RIP-DTR pups. Conditions: DT at 2 weeks of age. The test is classed as in vivo, mice.
In test [4] the test system is β-cells. Format: in vivo, mice. Conditions: 2 weeks following DT administration; ablation at 2 weeks of age.
Setting [5] is: administered immediately after DT ablation, analysed 1mpa, adult mice.

The values below come from patent US20170157110A1, “METHODS FOR INDUCING INSULIN PRODUCTION AND USES THEREOF” (UNIVERSITE DE GENEVE, priority 2014, published 2017).

T1 sequence (Q9R1E0 whole entry): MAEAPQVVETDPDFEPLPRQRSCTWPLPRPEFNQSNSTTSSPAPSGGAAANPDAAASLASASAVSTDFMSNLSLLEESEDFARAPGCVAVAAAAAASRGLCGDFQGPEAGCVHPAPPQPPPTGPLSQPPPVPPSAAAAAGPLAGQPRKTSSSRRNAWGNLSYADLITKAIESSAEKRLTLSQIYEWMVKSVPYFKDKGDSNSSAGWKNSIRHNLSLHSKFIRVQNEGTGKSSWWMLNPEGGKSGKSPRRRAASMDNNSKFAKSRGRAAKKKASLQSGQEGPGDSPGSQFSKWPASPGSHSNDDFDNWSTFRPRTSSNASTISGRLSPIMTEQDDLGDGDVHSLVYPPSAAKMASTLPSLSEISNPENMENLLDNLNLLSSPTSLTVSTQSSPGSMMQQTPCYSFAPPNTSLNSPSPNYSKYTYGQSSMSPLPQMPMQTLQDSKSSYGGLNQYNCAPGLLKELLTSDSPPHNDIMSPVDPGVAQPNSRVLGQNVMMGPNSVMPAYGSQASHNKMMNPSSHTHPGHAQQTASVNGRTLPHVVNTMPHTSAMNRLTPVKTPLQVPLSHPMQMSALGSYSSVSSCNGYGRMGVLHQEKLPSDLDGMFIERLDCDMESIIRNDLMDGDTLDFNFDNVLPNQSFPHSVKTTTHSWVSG

Take `CCn1cc(C(=O)O)c(=O)c2c(N)c(F)c(NC3CCCCC3)cc21` [AS1842856, 5-amino-7-(cyclohexylamino)-1-ethyl-6-fluoro-4-oxo-1,4-dihydroquinoline-3-carboxylic acid]: the “insulin+ cells more abundant” value in test [1] (AS1842856 given for 1 week immediately after DT ablation, analysed 1 month post ablation (1mpa), adult mice, 30 mg/kg i.p. daily) was 11 fold. For the same molecule, in test [1] (setting [5]), the “fraction of YFP+ cells that expressed insulin only” value was “one-fourth” and the “insulin+ cells that were YFP+, i.e. dedifferentiated δ-cells” value was 93%. Moreover, the “δ-cell de-differentiation upon transient FoxO1 inhibition” value in test [1] (adult mice, AS1842856 for 1 week) is given as “de-differentiate”. Also, in test [1] (non-ablated control mice), the “effect on insulin expression induction” value was “minimal effect”. The “fasting plasma glucose level” value in test [2] was “drastic decrease”.
As for Diphtheria toxin [DT], in test [3], the “YFP+/insulin+ (% cells; 1.5 mpa)” value came out at 0.23%. Moreover, the β-cells lost in test [4] is on record as 99%.
